Experimental data taken from PubChem BioAssay AID248 (DTP/NCI, 2004).
Where “and” joins values, the source holds several entries; their conditions need not be identical. Identical values can stand only once. Inconclusive results and toxic doses are left out. Cut-off read from the data, not from the text of the source: active = T/C of 150% or more; inactive = T/C below 125%. Square brackets hold non-standard residues; d marks the D form. Peptide text beside a SMILES is read from it. * marks the point of attachment. ξ: configuration not given here. Cbz = O=C(OCc1ccccc1)*; ξI = CCC(C)C(N)C(=O)O

Test system: L1210 leukemia ip in BDF1 mice, survival T/C
Assay: NCI In Vivo Anticancer Drug Screen. Data for tumor model L1210 Leukemia (intraperitoneal) in B6D2F1 (BDF1) mice
Settings: endpoint: mean survival time, higher = longer survival
Procedure, shortened: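 Ratio derived from survival: compound-dosed mice over vehicle-dosed mice, all bearing a transplantable tumor.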

[1] = dose: 100.0 mg/kg/injection, schedule: Q01DX001 (ip), vehicle: saline
[2] = dose: 150.0 mg/kg/injection, schedule: Q01DX001 (ip), vehicle: saline
[3] = dose: 100.0 mg/kg/injection, schedule: Q01DX009 (ip), vehicle: saline with Tween-80
[4] = dose: 400.0 mg/kg/injection, schedule: Q01DX009 (ip), vehicle: saline with Tween-80
[5] = dose: 100.0 mg/kg/injection, schedule: Q04DX003 (ip), vehicle: saline with Tween-80
[6] = dose: 200.0 mg/kg/injection, schedule: Q04DX003 (ip), vehicle: saline with Tween-80
[7] = dose: 400.0 mg/kg/injection, schedule: Q04DX003 (ip), vehicle: saline with Tween-80
[8] = dose: 50.0 mg/kg/injection, schedule: Q01DX009 (ip), vehicle: Klucel (hydroxypropylcellulose) (HPC)
[9] = dose: 100.0 mg/kg/injection, schedule: Q01DX009 (ip), vehicle: Klucel (hydroxypropylcellulose) (HPC)
[10] = dose: 200.0 mg/kg/injection, schedule: Q01DX009 (ip), vehicle: Klucel (hydroxypropylcellulose) (HPC)

Measured: T/C

COc1cc([C@@H]2c3cc4c(cc3[C@H](O)[C@H]3COC(=O)[C@@H]23)OCO4)cc(OC)c1OC
inactive: dose: 6.0 mg/kg/injection, schedule: Q01DX009 (ip), vehicle: Klucel (hydroxypropylcellulose) (HPC) 88 % of control | dose: 6.25 mg/kg/injection, schedule: Q01DX009 (ip), vehicle: saline 105 % of control | dose: 7.0 mg/kg/injection, schedule: Q01DX Z (ip), vehicle: methylcellulose (MC) 100 % of control | dose: 11.0 mg/kg/injection, schedule: Q01DX Z (ip), vehicle: methylcellulose (MC) 112 % of control | dose: 12.0 mg/kg/injection, schedule: Q01DX009 (ip), vehicle: Klucel (hydroxypropylcellulose) (HPC) 95 % of control | dose: 12.5 mg/kg/injection, schedule: Q01DX009 (ip), vehicle: saline 107 % of control | dose: 15.0 mg/kg/injection, schedule: Q01DX Z (ip), vehicle: methylcellulose (MC) 116 % of control | dose: 15.0 mg/kg/injection, schedule: Q04DX003 (ip), vehicle: Klucel (hydroxypropylcellulose) (HPC) 107 % of control | dose: 16.0 mg/kg/injection, schedule: Q01DX Z (ip), vehicle: methylcellulose (MC) 120 % of control | dose: 24.0 mg/kg/injection, schedule: Q01DX009 (ip), vehicle: Klucel (hydroxypropylcellulose) (HPC) 101 % of control | dose: 24.0 mg/kg/injection, schedule: Q01DX Z (ip), vehicle: methylcellulose (MC) 88 % of control | dose: 25.0 mg/kg/injection, schedule: Q01DX009 (ip), vehicle: saline 113 % of control | dose: 30.0 mg/kg/injection, schedule: Q01DX Z (ip), vehicle: methylcellulose (MC) 101 % of control | dose: 30.0 mg/kg/injection, schedule: Q04DX003 (ip), vehicle: Klucel (hydroxypropylcellulose) (HPC) 96 % of control | dose: 37.5 mg/kg/injection, schedule: Q04DX003 (ip), vehicle: Klucel (hydroxypropylcellulose) (HPC) 97 % of control | dose: 45.0 mg/kg/injection, schedule: Q01DX001 (ip), vehicle: saline 94 % of control and 102 % of control | dose: 48.0 mg/kg/injection, schedule: Q01DX009 (ip), vehicle: Klucel (hydroxypropylcellulose) (HPC) 120 % of control | dose: 50.0 mg/kg/injection, schedule: Q01DX001 (ip), vehicle: carboxymethylcellulose (CMC) 107 % of control | dose: 60.0 mg/kg/injection, schedule: Q04DX003 (ip), vehicle: Klucel (hydroxypropylcellulose) (HPC) 100 % of control | dose: 65.0 mg/kg/injection, schedule: Q01DX001 (ip), vehicle: saline 96 % of control and 124 % of control | dose: 75.0 mg/kg/injection, schedule: Q01DX009 (ip), vehicle: saline 92 % of control | dose: 75.0 mg/kg/injection, schedule: Q04DX003 (ip), vehicle: Klucel (hydroxypropylcellulose) (HPC) 114 % of control | dose: 100.0 mg/kg/injection, schedule: Q01DX001 (ip), vehicle: carboxymethylcellulose (CMC) 105 % of control | [1] 96 % of control | dose: 120.0 mg/kg/injection, schedule: Q04DX003 (ip), vehicle: Klucel (hydroxypropylcellulose) (HPC) 104 % of control | [2] 93 % of control and 107 % of control | dose: 150.0 mg/kg/injection, schedule: Q04DX003 (ip), vehicle: Klucel (hydroxypropylcellulose) (HPC) 111 % of control | dose: 200.0 mg/kg/injection, schedule: Q01DX001 (ip), vehicle: carboxymethylcellulose (CMC) 110 % of control | dose: 240.0 mg/kg/injection, schedule: Q04DX003 (ip), vehicle: Klucel (hydroxypropylcellulose) (HPC) 91 % of control | dose: 300.0 mg/kg/injection, schedule: Q04DX003 (ip), vehicle: Klucel (hydroxypropylcellulose) (HPC) 100 % of control | dose: 400.0 mg/kg/injection, schedule: Q01DX001 (ip), vehicle: carboxymethylcellulose (CMC) 102 % of control

COC1/C=C\OC2(C)Oc3c(C)c(O)c4c(O)c(c(/C=N\OCCCc5ccccc5)c(O)c4c3C2=O)NC(=O)/C(C)=C\C=C/C(C)C(O)C(C)C(O)C(C)C(OC(C)=O)C1C (centres undefined)
inactive: dose: 25.0 mg/kg/injection, schedule: Q04DX003 (ip), vehicle: water 96 % of control | dose: 50.0 mg/kg/injection, schedule: Q04DX003 (ip), vehicle: water 104 % of control | dose: 100.0 mg/kg/injection, schedule: Q04DX003 (ip), vehicle: water 100 % of control | dose: 200.0 mg/kg/injection, schedule: Q04DX003 (ip), vehicle: water 100 % of control

CC(C)C(NC(=O)C(F)(F)F)C(=O)O (centres undefined)
inactive: dose: 87.5 mg/kg/injection, schedule: Q04DX003 (ip), vehicle: saline 90 % of control | dose: 175.0 mg/kg/injection, schedule: Q04DX003 (ip), vehicle: saline 89 % of control

O=[N+]([O-])c1cc(C(F)(F)F)cc([N+](=O)[O-])c1N/N=C/c1ccc(F)cc1
inactive: dose: 25.0 mg/kg/injection, schedule: Q01DX009 (ip), vehicle: saline with Tween-80 87 % of control | dose: 50.0 mg/kg/injection, schedule: Q01DX009 (ip), vehicle: saline with Tween-80 94 % of control | [3] 92 % of control and 89 % of control | [4] 86 % of control

CC(=O)N1C=C(Br)c2ccccc2C1C1c2ccccc2C(Br)=CN1C(C)=O (centres undefined)
inactive: [5] 91 % of control | [6] 87 % of control | [7] 91 % of control

C=C1C(=O)OCC2C(C(=O)O)=CC3C(C)C(C)=CC123 (centres undefined)
inactive: dose: 20.0 mg/kg/injection, schedule: Q01DX009 (ip), vehicle: saline with Tween-80 108 % of control | dose: 40.0 mg/kg/injection, schedule: Q01DX009 (ip), vehicle: saline with Tween-80 111 % of control

CCCCC(OC(=O)c1ccc([N+](=O)[O-])cc1)C(C)[N+](=O)[O-] (centres undefined)
inactive: [3] 94 % of control | dose: 200.0 mg/kg/injection, schedule: Q01DX009 (ip), vehicle: saline with Tween-80 97 % of control | [4] 92 % of control

C[n+]1cccc(CNC(=O)COc2ccc(Cl)c(Cl)c2)c1
inactive: dose: 25.0 mg/kg/injection, schedule: Q01DX001 (ip), vehicle: saline 106 % of control | dose: 50.0 mg/kg/injection, schedule: Q01DX001 (ip), vehicle: saline 103 % of control | [1] 97 % of control and 109 % of control

Cc1ccc(NC(=O)N(Cc2ccccc2)Cc2ccccc2)c([N+](=O)[O-])c1
inactive: [8] 87 % of control | [9] 123 % of control | dose: 100.0 mg/kg/injection, schedule: Q04DX003 (ip), vehicle: Klucel (hydroxypropylcellulose) (HPC) 95 % of control | [10] 90 % of control | dose: 200.0 mg/kg/injection, schedule: Q04DX003 (ip), vehicle: Klucel (hydroxypropylcellulose) (HPC) 101 % of control | dose: 400.0 mg/kg/injection, schedule: Q04DX003 (ip), vehicle: Klucel (hydroxypropylcellulose) (HPC) 99 % of control

CCOC(=O)c1cc(OC(C)=O)c2c(ccc3ccccc32)c1C
inactive: [9] 98 % of control | [10] 88 % of control | dose: 400.0 mg/kg/injection, schedule: Q01DX009 (ip), vehicle: Klucel (hydroxypropylcellulose) (HPC) 91 % of control

CCCCCC1CCC(OC(=O)NC)CC1 (centres undefined)
inactive: dose: 100.0 mg/kg/injection, schedule: Q01DX001 (ip), vehicle: Klucel (hydroxypropylcellulose) (HPC) 99 % of control | dose: 200.0 mg/kg/injection, schedule: Q01DX001 (ip), vehicle: Klucel (hydroxypropylcellulose) (HPC) 100 % of control | dose: 400.0 mg/kg/injection, schedule: Q01DX001 (ip), vehicle: Klucel (hydroxypropylcellulose) (HPC) 94 % of control

O=C(O)c1cc(Cl)c(Cl)cc1Cl
inactive: dose: 50.0 mg/kg/injection, schedule: Q01DX009 (ip), vehicle: saline 104 % of control | [1] 93 % of control | dose: 100.0 mg/kg/injection, schedule: Q01DX009 (ip), vehicle: saline 98 % of control | dose: 100.0 mg/kg/injection, schedule: Q04DX003 (ip), vehicle: saline 100 % of control | dose: 200.0 mg/kg/injection, schedule: Q01DX001 (ip), vehicle: saline 86 % of control | dose: 200.0 mg/kg/injection, schedule: Q04DX003 (ip), vehicle: saline 102 % of control | dose: 400.0 mg/kg/injection, schedule: Q01DX001 (ip), vehicle: saline 94 % of control

CCC(C)C(NC(=O)CNC(=O)OCc1ccccc1)C(N)=O (stereo not drawn) (Cbz-Gly-[ξI]-NH2)
inactive: [5] 103 % of control | [6] 97 % of control | [7] 95 % of control

COP(=S)(OC)N(C)C
inactive: dose: 75.0 mg/kg/injection, schedule: Q01DX001 (ip), vehicle: saline 101 % of control | [2] 96 % of control

N=C(N(O)C(=O)Nc1ccccc1)C(Cl)(Cl)Cl
inactive: dose: 25.0 mg/kg/injection, schedule: Q01DX009 (ip), vehicle: Klucel (hydroxypropylcellulose) (HPC) 98 % of control | [8] 100 % of control | [9] 104 % of control and 105 % of control
